Reference: paper PMC11200585, “Prospects for Prostate Cancer Chemotherapy: Cytotoxic Evaluation and Mechanistic Insights of Quinolinequinones with ADME/PK Profile” (Biomedicines, 2024)

Columns and labels:
Assay type in all cases: cell-based, human
[1] = tested on: HS 578T; assay: NCI-60 five-dose assay (breast cancer); details: 48 h, SRB
[2] = tested on: SK-MEL-28; assay: NCI-60 one-dose screen (melanoma); details: 10 µM single dose
Method: (§1) The obtained quinolinequinones were submitted to NCI, Bethesda, USA, and, as per standard protocol of NCI, all compounds were evaluated for their antiproliferative activity at single-dose assay (10 µM concentration in DMSO) on a panel of 60 cancer cell lines derived from leukemia, non-small-cell lung, colon, CNS, melanoma, ovarian, renal, prostate, and breast, as per protocol. Tested compounds were added to the microtiter culture plates followed by incubation for 48 h at 37 °C. Sulforhodamine B (SRB), a protein-binding dye, is used for endpoint determination. The percent of the growth of the treated cells was determined in comparison to the untreated control cells and the results of each tested compound were reported. Data from one-dose experiments pertain to the percentage growth at 10 μM [16, 17, 18].

[3] = tested on: SK-MEL-5; assay: NCI-60 one-dose screen (melanoma); details: 10 µM single dose, 48 h
Method: as §1

[4] = tested on: SK-MEL-2; assay: NCI-60 one-dose screen (melanoma); details: 10 µM single dose, 48 h
Method: as §1

[5] = tested on: LOX IMVI; assay: NCI-60 one-dose screen (melanoma); details: 10 µM single dose, 48 h
Method: as §1

[6] = tested on: MALME-3M; assay: NCI-60 one-dose screen (melanoma); details: 10 µM single dose, 48 h
Method: as §1

[7] = tested on: UACC-62; assay: NCI-60 one-dose screen (melanoma); details: 10 µM single dose, 48 h
Method: as §1

[8] = tested on: UACC-257; assay: NCI-60 one-dose screen (melanoma); details: 10 µM single dose, 48 h
Method: as §1

[9] = tested on: MDA-MB-435; assay: NCI-60 one-dose screen (melanoma); details: 10 µM single dose, 48 h
Method: as §1

[10] = tested on: HT29; assay: NCI-60 five-dose assay (colon cancer); details: SRB
[11] = tested on: RXF 393; assay: NCI-60 five-dose assay (renal cancer); details: 48 h, SRB
[12] = tested on: HOP-92; assay: NCI-60 five-dose assay (non-small cell lung cancer); details: 48 h, SRB
[13] = tested on: CAKI-1; assay: NCI-60 five-dose assay (renal cancer); details: 48 h, SRB
[14] = tested on: SNB-19; assay: NCI-60 five-dose assay (CNS cancer); details: 48 h, SRB
[15] = tested on: UO-31; assay: NCI-60 five-dose assay (renal cancer); details: 48 h, SRB
[16] = tested on: NCI/ADR-RES; assay: NCI-60 one-dose screen (ovarian cancer); details: 10 µM single dose
Method: as §1

[17] = tested on: SK-OV-3; assay: NCI-60 one-dose screen (ovarian cancer); details: 10 µM single dose, 48 h
Method: as §1

[18] = tested on: OVCAR-8; assay: NCI-60 one-dose screen (ovarian cancer); details: 10 µM single dose
Method: as §1

[19] = tested on: OVCAR-4; assay: NCI-60 one-dose screen (ovarian cancer); details: 10 µM single dose, 48 h
Method: as §1

[20] = tested on: IGROV1; assay: NCI-60 one-dose screen (ovarian cancer); details: 10 µM single dose, 48 h
Method: as §1

[21] = tested on: OVCAR-5; assay: NCI-60 one-dose screen (ovarian cancer); details: 10 µM single dose, 48 h
Method: as §1

[22] = tested on: SK-MEL-5; assay: NCI-60 five-dose assay (melanoma); details: 48 h, SRB
[23] = tested on: SF-295; assay: NCI-60 five-dose assay (CNS cancer); details: 48 h, SRB
[24] = tested on: TK-10; assay: NCI-60 five-dose assay (renal cancer); details: 48 h, SRB
[25] = tested on: UACC-257; assay: NCI-60 five-dose assay (melanoma); details: 48 h, SRB
[26] = tested on: MDA-MB-468; assay: NCI-60 five-dose assay (breast cancer); details: 48 h, SRB
[27] = tested on: SNB-75; assay: NCI-60 five-dose assay (CNS cancer); details: 48 h, SRB
[28] = tested on: KM12; assay: NCI-60 five-dose assay (colon cancer); details: 48 h, SRB
[29] = tested on: OVCAR-8; assay: NCI-60 five-dose assay (ovarian cancer); details: 48 h, SRB
[30] = tested on: RPMI-8226; assay: NCI-60 five-dose assay (leukemia); details: 48 h, SRB
[31] = tested on: PC-3; assay: NCI-60 five-dose assay (prostate cancer); details: 48 h, SRB
[32] = tested on: SF-268; assay: NCI-60 five-dose assay (CNS cancer); details: 48 h, SRB
[33] = tested on: HCT-15; assay: NCI-60 five-dose assay (colon cancer); details: 48 h, SRB
[34] = tested on: U251; assay: NCI-60 five-dose assay (CNS cancer); details: SRB
[35] = tested on: BT-549; assay: NCI-60 five-dose assay (breast cancer); details: 48 h, SRB
[36] = tested on: IGROV1; assay: NCI-60 five-dose assay (ovarian cancer); details: SRB
[37] = Homo sapiens, read-out: LC50 (the source's name)

Which results are given for `COc1ccccc1NC1=C(Cl)C(=O)c2nc(C)ccc2C1=O` [AQQ1]?
TGI [1]: 5.64 µM; GI50 ([1]; Homo sapiens): 2.27 µM; CC50 [1, 37]: > 100 µM; GP (growth percentage) ([2]; 48 h): 14.13%; inhibition at 10 µM ([2]; Homo sapiens): 85.9%; GP (growth percentage) [3]: −93.34%; GP (growth percentage) [4]: 78.82%; GP (growth percentage) [5]: −72.99%; GP (growth percentage) [6]: −55.92%; GP (growth percentage) [7]: −45.84%; GP (growth percentage) [8]: −82.67%; GP (growth percentage) [9]: −85.96%; TGI ([10]; 48 h): 4.49 µM; GI50 ([10]; Homo sapiens, HT-29, 48 h): 2.13 µM; LC50 (concentration killing 50% of cells) ([10]; Homo sapiens, HT-29, 48 h): 9.46 µM; TGI [11]: 2.76 µM; GI50 ([11]; Homo sapiens): 1.42 µM; LC50 ([11]; Homo sapiens): 5.36 µM; TGI [12]: 3.30 µM; GI50 ([12]; Homo sapiens): 1.85 µM; LC50 (50% lethal concentration) ([12]; Homo sapiens): 5.91 µM; TGI [13]: 2.87 µM; GI50 ([13]; Homo sapiens): 1.5 µM; LC50 (lethal concentration, 50% net cell kill) ([13]; Homo sapiens): 5.47 µM; TGI [14]: 3.72 µM; GI50 ([14]; Homo sapiens): 1.81 µM; CC50 [14, 37]: 7.64 µM; TGI [15]: 2.73 µM; GI50 ([15]; Homo sapiens): 1.42 µM; LC50 (lethal concentration 50%) ([15]; Homo sapiens): 5.26 µM; GP (growth percentage) ([16]; 48 h): 7.08%; inhibition at 10 µM ([16]; Homo sapiens): 92.9%; GP (growth percentage) [17]: 88.34%; GP (growth percentage) ([18]; 48 h): 9.87%; inhibition at 10 µM ([18]; Homo sapiens): 90.1%; GP (growth percentage) [19]: −98.22%; GP (growth percentage) [20]: −83.51%; GP (growth percentage) [21]: 78.91%; TGI [22]: 3.17 µM; GI50 ([22]; Homo sapiens): 1.75 µM; CC50 [22, 37]: 5.74 µM; TGI [23]: 3.42 µM; GI50 ([23]; Homo sapiens): 1.85 µM; LC50 (50% lethal concentration) ([23]; Homo sapiens): 6.32 µM; TGI [24]: 3.86 µM; GI50 ([24]; Homo sapiens): 2.34 µM; LC50 (concentration killing 50% of starting cells) ([24]; Homo sapiens): 6.36 µM; TGI [25]: 3.09 µM; GI50 ([25]; Homo sapiens): 1.57 µM; LC50 (NCI-60 lethal concentration, 50% cell kill) ([25]; Homo sapiens): 6.11 µM; TGI [26]: 3.06 µM; GI50 ([26]; Homo sapiens): 1.52 µM; LC50 ([26]; Homo sapiens): 6.16 µM; TGI [27]: 2.84 µM; GI50 ([27]; Homo sapiens): 1.5 µM; LC50 (50% lethal concentration) ([27]; Homo sapiens): 5.39 µM; TGI [28]: 3.08 µM; GI50 ([28]; Homo sapiens): 1.49 µM; CC50 [28, 37]: 6.4 µM; TGI [29]: 3.25 µM; GI50 ([29]; Homo sapiens): 1.61 µM; CC50 [29, 37]: 6.59 µM; TGI [30]: 4.61 µM; GI50 ([30]; Homo sapiens): 1.57 µM; CC50 [30, 37]: > 100 µM; TGI [31]: 2.58 µM; GI50 ([31]; Homo sapiens): 1.21 µM; CC50 [31, 37]: 5.49 µM; TGI [32]: 3.05 µM; GI50 ([32]; Homo sapiens): 1.53 µM; LC50 (concentration killing 50% of cells) ([32]; Homo sapiens): 6.06 µM; TGI [33]: 3.02 µM; GI50 ([33]; Homo sapiens): 1.33 µM; CC50 [33, 37]: 6.83 µM; TGI ([34]; 48 h): 3.73 µM; GI50 ([34]; Homo sapiens, U-251, 48 h): 1.85 µM; LC50 (concentration killing 50% of cells) ([34]; Homo sapiens, U-251, 48 h): 7.53 µM; TGI [35]: 3.27 µM; GI50 ([35]; Homo sapiens): 1.72 µM; LC50 (concentration giving 50% net cell kill) ([35]; Homo sapiens): 6.19 µM; TGI ([36]; 48 h): 2.92 µM; GI50 ([36]; Homo sapiens, IGROV-1, 48 h): 1.46 µM; LC50 ([36]; Homo sapiens, IGROV-1, 48 h): 5.86 µM
